Counter-ions that a name gives are not always drawn. Like-named read-outs stand apart in the source and are kept apart here.
Assays:
JURKAT human T-cell line = assay: Secondary assay: cell proliferation WST-1, Jurkat; format: cell-based; conditions: Homo sapiens, Table 2, 48 h, read-out: Cell Proliferation Inhibition WST-1 (IC50 unless otherwise specified) Jurkat
HeLa cells = assay: Secondary assay: cell proliferation WST-1, HeLa; format: cell-based; conditions: Homo sapiens, read-out: Cell Proliferation Inhibition WST-1 (IC50 unless otherwise specified) HeLa
HDAC (HeLa cell extract) = assay: Primary assay: deacetylase activity, HeLa cell extract as source of HDAC; format: biochemical, human; conditions: for HDAC Inhibition HeLa, % @ 500: Table 1, @ 500
Excerpt: Briefly, this assay relies on the release of radioactive acetate from a radioactively labelled histone fragment by the action of HDAC enzyme. Test compounds, which inhibit HDAC, reduce the yield of radioactive acetate. Signal (e.g., scintillation counts) measured in the presence and absence of a test compound provide an indication of that compound's ability to inhibit HDAC activity. Decreased activity indicates increased inhibition by the test compound.
The histone fragment was an N-terminal sequence from histone H4, and it was labelled with radioactively labelled acetyl groups using tritiated acetylcoenzyme A (coA) in conjunction with an enzyme which is the histone acetyltransferase domain of the transcriptional coactivator p300. […] The acetylated peptide was then separated from free acetyl coA by size exclusion chromatography on Sephadex G-15 (Sigma G-15-120), using distilled H2O as the mobile phase.
After purification of the radiolabelled histone fragment, it was incubated with a source of HDAC (e.g., an extract of HeLa cells (a rich source of HDAC), recombinantly produced HDAC1 or HDAC2) and any released acetate was extracted into an organic phase and quantitatively determined using scintillation counting. By including a test compound with the source of HDAC, that compound's ability to inhibit the HDAC was determined.
Two cell volumes of extraction buffer were used, and particulate material was centrifuged out (20800 g, 4° C., 10 min). The supernatant extract having deacetylase activity was aliquotted and frozen for storage.
A source of HDAC (e.g., 2 μL of crude HeLa extract, 5 μL of HDAC1 or HDAC2; in elution buffer, as above) was incubated with 3 μL of radioactively labelled peptide along with appropriate dilutions of candidate compounds (1.5 μL) in a total volume of 150 μL of buffer (20 mM Tris pH 7.4, 10% glycerol). The reaction was carried out at 37° C. for one hour, after which the reaction was stopped by adding 20 μL of 1 M HCl/0.4 M sodium acetate. […] Radioactivity was measured using a Tri-Carb 21 00TR Liquid Scintillation Analyzer (Packard).
Percent activity (% activity) for each test compound was calculated as: % activity={(S^C−B)/(S°−B)}×100 wherein S^C denotes signal measured in the presence of enzyme and the compound being tested, S° denotes signal measured in the presence of enzyme but in the absence of the compound being tested, and B denotes the background signal measured in the absence of both enzyme and compound being tested.

[1] = tested on: K11 HPV E7 transformed human keratinocyte line; assay: Secondary assay: cell proliferation WST-1, K11; format: cell-based; conditions: Homo sapiens, Keratinocyte, Table 2, 48 h, read-out: Cell Proliferation Inhibition WST-1 (IC50 unless otherwise specified) K11
[2] = Table 1, read-out: HDAC Inhibition (IC50 unless otherwise specified) HeLa

Structure (SMILES): O=C(/C=C/c1cccc(S(=O)(=O)NCc2cccnc2)c1)NO [PX117250, N-Hydroxy-3-{3-[(pyridin-3-ylmethyl)-sulfamoyl]-phenyl}-acrylamide]
- IC50 (JURKAT human T-cell line): 1 µM
- melting point: 191 °C
- IC50 (HeLa cells; Table 2, 48 h): 7.8 µM
- IC50 (HDAC (HeLa cell extract); [2]): 0.192 µM

Structure (SMILES): CN(c1ccccc1)S(=O)(=O)CCCCCCC(=O)NO [PX117260, N-Hydroxy-7-[(methylanilino)sulfonyl]heptanamide]
- melting point: 69 to 70 °C
- HDAC Inhibition HeLa, % @ 500 (HDAC (HeLa cell extract)): 35% @ 500

Structure (SMILES): CN(c1ccccc1)S(=O)(=O)CCCCCC(=O)NO [PX117410, N-Hydroxy-6-[(methylanilino)sulfonyl]hexanamide]
- melting point: 121 to 122 °C
- HDAC Inhibition HeLa, % @ 500 (HDAC (HeLa cell extract)): 40% @ 500

Structure (SMILES): CN(c1ccccc1)S(=O)(=O)CCCCCCCC(=O)NO [PX117411, N-Hydroxy-8-[(methylanilino)sulfonyl]octanamide]
- melting point: 65.5 to 66.5 °C
- HDAC Inhibition HeLa, % @ 500 (HDAC (HeLa cell extract)): 39% @ 500

Structure (SMILES): O=C(CCCCCCCS(=O)(=O)N(Cc1ccccc1)c1ccccc1)NO [PX117412, 8-[(Benzylanilino)sulfonyl]-N-hydroxyoctanamide]
- melting point: 119 to 119.5 °C
- HDAC Inhibition HeLa, % @ 500 (HDAC (HeLa cell extract)): 54% @ 500

Structure (SMILES): O=C(CCCCCS(=O)(=O)N(Cc1ccccc1)c1ccccc1)NO [PX117414, 6-[(Benzylanilino)sulfonyl]-N-hydroxyhexanamide]
- melting point: 129 to 129.5 °C
- HDAC Inhibition HeLa, % @ 500 (HDAC (HeLa cell extract)): 46% @ 500

Structure (SMILES): O=C(CCCCCNS(=O)(=O)/C=C/c1ccccc1)NO [PX117429, 6-(2-Phenylethenesulfonylamino)hexanoic acid hydroxyamide]
- melting point: 107 to 109 °C
- HDAC Inhibition HeLa, % @ 500 (HDAC (HeLa cell extract)): 73% @ 500

Structure (SMILES): O=C(CCCCCNS(=O)(=O)c1cccnc1)NO [PX117432, 6-(Pyridine-3-sulfonylamino)hexanoic acid hydroxyamide oxalate]
- HDAC Inhibition HeLa, % @ 500 (HDAC (HeLa cell extract)): 24% @ 500

Structure (SMILES): O=C(/C=C/c1ccccc1S(=O)(=O)Nc1cccc2ccccc12)NO [PX117447, N-Hydroxy-3-[2-(naphthalen-1-ylsulfamoyl)-phenyl]-acrylamide]
- melting point: 186 to 187 °C
- IC50 (HeLa cells; 48 h): 77.8 µM
- HDAC Inhibition HeLa, % @ 500 (HDAC (HeLa cell extract)): 3% @ 500
- HeLa, % @ 500 nM (HDAC (HeLa cell extract); comparative tables): 3% @ 500 nM

Structure (SMILES): CN(c1ccccc1)S(=O)(=O)c1ccccc1/C=C/C(=O)NO [PX117448, N-Hydroxy-3-[2-(methyl-phenyl-sulfamoyl)-phenyl]-acrylamide]
- melting point: 144.5 to 145.5 °C
- IC50 (HeLa cells; 48 h): 88.9 µM
- HDAC Inhibition HeLa, % @ 500 (HDAC (HeLa cell extract)): 3% @ 500
- HeLa, % @ 500 nM (HDAC (HeLa cell extract); comparative tables): 3% @ 500 nM

Structure (SMILES): O=C(/C=C/c1ccc(S(=O)(=O)Nc2ccccc2)cc1)NO [PX117450, N-Hydroxy-3-(4-phenylsulfamoylphenyl)acrylamide]
- melting point: 176 to 177.5 °C
- IC50 (HeLa cells; Table 2, 48 h): 1.6 µM
- IC50 (HDAC (HeLa cell extract); [2]): 0.02 µM
- IC50 (HDAC (HeLa cell extract); comparative tables, HDAC inhibition, read-out: HeLa IC50): 0.02 µM

Structure (SMILES): O=C(/C=C/c1cccc(S(=O)(=O)Nc2ccccc2-c2ccccc2)c1)NO [PX117713, 3-[3-(Biphenyl-2-ylsulfamoyl)phenyl]-N-hydroxy-acrylamide]
- IC50 [1]: 9.2 µM
- IC50 (JURKAT human T-cell line): 0.62 µM
- IC50 (HeLa cells; Table 2, 48 h): 5.1 µM
- IC50 (HDAC (HeLa cell extract); [2]): 0.138 µM

Structure (SMILES): O=C(/C=C/c1cccc(S(=O)(=O)NC2Cc3ccccc3C2)c1)NO [PX117735, N-Hydroxy-3-[3-(indan-2-ylsulfamoyl)-phenyl]-acrylamide]
- IC50 [1]: 3.1 µM
- IC50 (JURKAT human T-cell line): 0.074 µM
- melting point: 164 °C
- IC50 (HDAC (HeLa cell extract); [2]): 0.006 µM

Structure (SMILES): O=C(/C=C/c1ccc(S(=O)(=O)Nc2ccc3ccccc3c2)cc1)NO [PX117736, N-Hydroxy-3-[4-(naphthalen-2-ylsulfamoyl)-phenyl]-acrylamide]
- IC50 [1]: 0.8 µM
- IC50 (JURKAT human T-cell line): 0.12 µM
- melting point: 198.5 to 199.5 °C
- IC50 (HDAC (HeLa cell extract); [2]): 0.006 µM

Structure (SMILES): COc1cc(CNS(=O)(=O)c2cccc(/C=C/C(=O)NO)c2)cc(OC)c1OC [PX117778, N-Hydroxy-3-[3-(3,4,5-trimethoxy-benzylsulfamoyl)-phenyl]-acrylamide]
- IC50 [1]: > 30 µM
- IC50 (JURKAT human T-cell line): > 10 µM
- IC50 (HDAC (HeLa cell extract); [2]): > 0.4 µM

Structure (SMILES): COc1ccc(CCNS(=O)(=O)c2cccc(/C=C/C(=O)NO)c2)cc1OC [PX117779, 3-{3-[2-(3,4-Dimethoxy-phenyl)-ethylsulfamoyl]-phenyl}-N-hydroxy-acrylamide]
- IC50 [1]: 1.4 µM
- IC50 (JURKAT human T-cell line): 1.1 µM
- IC50 (HeLa cells; Table 2, 48 h): 9.6 µM
- IC50 (HDAC (HeLa cell extract); [2]): 0.25 µM

Reference: US7407988B2, “Carbamic acid compounds comprising a sulfonamide linkage as HDAC inhibitors” (Topotarget UK Limited, priority 2000, dated 2008)
